In the series the test system is beet army worm (Spodoptera exigua). Description: Insecticidal test for beet armyworm (diet surface treatment, larval mortality). The class given is in vivo. The settings on record: 100 μg/cm^2 on diet surface; first instar larvae, 32 insects per treatment; observations 24, 48 and 96 hours after treatment. Here is the method: The compounds identified in Table 8 were prepared according to the previous methods and were tested against beet armyworm and corn earworm as follows:
Insecticidal Test for Beet Armyworm (Spodoptera Exigua).
To prepare the test solution, the test compound was Formulated at 3499 ppm in solution as 5 mg compound/1.429 mL of 9 parts acetone: 1 part deionized H2O and vortexed to homogenize. 50 μL of the 3499 ppm (equivalent to 100 μg/cm^2 dose on diet surface area) test solution was pipetted upon the surface of 1 mL of solidified cool Southland Products Incorporated Beet Armyworm Diet (201 Stuart Island Road Lake Village, Ark. 71653) using an Eppendorf Repeater Plus with a 1 mL pipette tip. All pipetting of treatments was done in a Labconco Hood. Thirty minutes were allowed for the acetone to evaporate leaving a dose of 100 μg/cm^2 on the surface of the artificial diet. Two 24 hour old first instar Beet Armyworm(Spodoptera Exigua) larvae were placed in each well of the 128 well Bio-BA 128 Bioassay trays (CD International, Pitman, N.J., 08071, USA) using a #0 fine camel hair paint brush. Bioassay trays were sectioned into treatment groups of 8 with 16 replicates per treatment group (32 insects per treatment). […] The number of insects dead were counted out of the 32 insects total per treatment and the results are given in a table as a percent mortality at a dose of 100 μg/cm^2. […]

Molecules are shown by their SMILES.

`Fc1cccc(Cl)c1-c1nc(NN=Cc2ccc(C(F)(F)F)cc2)nc(Nc2ccc(Cl)nc2)n1` [Example 51, 4-(2-chloro-6-fluorophenyl)-N-(6-chloropyridin-3-yl)-6-(2-(4-(trifluoromethyl)benzylidene)hydrazinyl)-1,3,5-triazin-2-amine]: the Mortality entry is recorded as “A (A=76-100% mortality)”.

The record behind these values is patent US9321735B2, “Insecticidal triazines and pyrimidines” (Vestaron Corporation, priority 2010, dated 2016).
